According to publication PMC10641276 (Saudi Pharmaceutical Journal : SPJ, 2023):

Biological target: thymidine phosphorylase (Escherichia coli, UniProt P07650)
Format: biochemical
Details: thymidine phosphorylase inhibition versus standard drug (7-deazaxanthine)

thymidine phosphorylase, sequence (P07650 whole entry): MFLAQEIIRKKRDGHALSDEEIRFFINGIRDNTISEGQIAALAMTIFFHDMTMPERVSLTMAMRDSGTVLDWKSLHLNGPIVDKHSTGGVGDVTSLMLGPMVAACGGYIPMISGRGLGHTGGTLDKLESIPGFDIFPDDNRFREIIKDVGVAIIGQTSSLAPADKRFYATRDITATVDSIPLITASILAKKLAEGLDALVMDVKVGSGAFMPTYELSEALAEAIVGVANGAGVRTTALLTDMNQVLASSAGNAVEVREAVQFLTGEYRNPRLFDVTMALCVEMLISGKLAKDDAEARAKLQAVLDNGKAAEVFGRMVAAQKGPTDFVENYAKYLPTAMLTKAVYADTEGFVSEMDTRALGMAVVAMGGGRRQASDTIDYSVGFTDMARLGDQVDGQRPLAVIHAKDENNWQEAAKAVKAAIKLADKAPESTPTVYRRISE

SMILES | potency compared with standard drug
Cc1ccc(-c2ccc(/C=N/c3nnc(-c4cccc(-c5nnc(/N=C/c6ccc(-c7ccc(C)cc7)cc6)s5)n4)s3)cc2)cc1 [4n, (1E,1'E)-N,N'-(pyridine-2,6-diylbis(1,3,4-thiadiazole-5,2-diyl))bis(1-(4'-methyl-[1,1'-biphenyl]-4-yl)methanimine)] | less potent than the standard drug
C(=N\c1nnc(-c2cccc(-c3nnc(/N=C/c4ccc(-c5ccccc5)cc4)s3)n2)s1)/c1ccc(-c2ccccc2)cc1 [4e, (1E,1'E)-N,N'-(pyridine-2,6-diylbis(1,3,4-thiadiazole-5,2-diyl))bis(1-([1,1'-biphenyl]-4-yl)methanimine)] | less potent than the standard drug
CN(C)c1ccc(/C=N/c2nnc(-c3cccc(-c4nnc(/N=C/c5ccc(N(C)C)cc5)s4)n3)s2)cc1 [4i, 4,4'-((1E,1'E)-((pyridine-2,6-diylbis(1,3,4-thiadiazole-5,2-diyl))bis(azanylylidene))bis(methanylylidene))bis(N,N-dimethylaniline)] | less potent than the standard drug
